The subject of this assay is Pseudomonas aeruginosa. Briefly: Antibacterial activity against Pseudomonas aeruginosa PAO1 assessed as inhibition of biofilm formation for 24 hrs by crystal violet staining based assay. The format is functional, organism-based. The conditions noted are these: PAO1, 24 h.

Each structure is given as a SMILES string. A value given as a limit tells only on which side of the number the result lay.

A word on the IC50: it is the concentration needed to halve the response being measured.

With `COc1ccc(C(=O)NCc2cc(=O)c(O)cn2C)cc1`, the half-inhibitory concentration (IC50) was more than 100 µM.
Turning to `COc1ccc(CC(=O)NCc2cc(=O)c(O)cn2O)cc1`, the IC50 was more than 100 µM.
On to `CCCCn1c(C)cc(=O)c(O)c1CNC1CCCC1`, for which the IC50 is more than 100 µM.
Regarding `CCCCCCC(=O)NCc1c(O)c(=O)cc(C)n1CCCC`, the IC50 was more than 100 µM.
In the case of `CCCCn1c(C)cc(=O)c(O)c1CNC(=O)c1ccc(C(F)(F)F)cc1` it was 8.4 µM; in that of `CCCCCCC(=O)NCc1c(O)c(=O)cc(C)n1CC`, more than 100 µM.
To `CCCCCC(=O)NCc1c(O)c(=O)cc(C)n1CCCC` belongs 34.9 µM; to `CCCCCCC(=O)NCc1cc(=O)c(O)cn1C`, more than 100 µM.
To `CCCn1c(C)cc(=O)c(O)c1CNC(=O)Cc1ccc(F)cc1` belongs more than 100 µM; to `CCCCCC(=O)NCc1c(O)c(=O)cc(C)n1CC`, more than 100 µM; to `Cn1cc(O)c(=O)cc1CNC(=O)c1ccc(C(F)(F)F)cc1`, more than 100 µM.
Consider `COCCn1c(C)cc(=O)c(O)c1CNC(=O)c1ccc(C(F)(F)F)cc1`, for which the IC50 was more than 100 µM.
For `CCCCn1c(C)cc(=O)c(O)c1CNC(=O)Cc1ccc(F)cc1`, the IC50 was more than 100 µM.
For the molecule `CCCn1c(C)cc(=O)c(O)c1CNc1ccc(OC)cc1`, the half-inhibitory concentration (IC50) stood at 55.5 µM.
Consider `CCCn1c(C)cc(=O)c(O)c1CNC(=O)c1cccc(OC)c1`, for which the IC50 was determined as 56.5 µM.
In the case of `CCCCCCCC(=O)NCc1cc(=O)c(O)cn1O` it was more than 100 µM; in that of `CC[C@H]1OC(=O)[C@H](C)[C@@H](O[C@H]2C[C@@](C)(OC)[C@@H](O)[C@H](C)O2)[C@H](C)[C@@H](O[C@@H]2O[C@H](C)C[C@H](N(C)C)[C@H]2O)[C@](C)(O)C[C@@H](C)CN(C)[C@H](C)[C@@H](O)[C@]1(C)O` [AZITHROMYCIN], 7.1 µM; in that of `CCCCn1c(C)cc(=O)c(O)c1CNc1ccc(OC)cc1`, 45.4 µM.
To `O=C(NCc1cc(=O)c(O)cn1O)c1ccc(C(F)(F)F)cc1` belongs more than 100 µM; to `CCCCCCC(=O)NCc1cc(=O)c(O)cn1O`, more than 100 µM; to `O=C(NCc1cc(=O)c(O)cn1O)c1ccccc1`, more than 100 µM.
In the case of `CCCn1c(C)cc(=O)c(O)c1CNC1CCCC1`, the IC50 is more than 100 µM.
In the case of `CCCn1c(C)cc(=O)c(O)c1CNC(=O)c1ccc(OC)cc1` it was 5.2 µM.

The values above are taken from ChEMBL document CHEMBL5046248, “New Pqs Quorum Sensing System Inhibitor as an Antibacterial Synergist against Multidrug-Resistant Pseudomonas aeruginosa” (J Med Chem, 2022).
